# Columns and labels:
# [1] = system: Staphylococcus epidermidis BK12798; test: MIC, Staphylococcus epidermidis BK12798; settings: Staphylococcus epidermidis, BK12798, 24 h
# [2] = system: Bacillus subtilis BK11590; test: MIC, Bacillus subtilis BK11590; format: cell-based; settings: Gram +, 24 hours of incubation, read-out: MIC
# [3] = system: Enterobacter cloacii BK12313; test: MIC, Enterobacter cloacii BK12313; settings: Enterobacter, BK12313, 24 h
# Shigella sp., BK 12441 = test: MIC, Shigella sp., BK 12441; format: cell-based; settings: Gram −, 24 hours of incubation, read-out: MIC
# M. tuberculosis 210 = test: MIC, M. tuberculosis 210; format: cell-based; settings: Mycobacterium tuberculosis, read-out: MIC
# Method: (§1) Next, several of the bifunctional ITC compounds were tested for their ability to inhibit the growth of some clinical isolates of Mycobacteria, the results of which are summarized in Table 3 below.
# [4] = system: Pseudomonas aeruginosa BK12348; test: MIC, Pseudomonas aeruginosa BK12348; settings: Pseudomonas aeruginosa, BK12348, 24 h
# [5] = system: Enterococcus sp., BK11940; test: MIC, Enterococcus sp., BK11940; settings: Enterococcus, 24 h
# [6] = system: Pseudomonas aeruginosa BK12347; test: MIC, Pseudomonas aeruginosa BK12347; settings: Pseudomonas aeruginosa, BK12347, 24 h
# M. tuberculosis W = test: MIC, M. tuberculosis W; format: cell-based; settings: Mycobacterium tuberculosis, read-out: MIC
# Method: as §1
# M. tuberculosis AB = test: MIC, M. tuberculosis AB; format: cell-based; settings: Mycobacterium tuberculosis, read-out: MIC
# Method: as §1
# [7] = system: Acinetobacter sp., BK12786; test: MIC, Acinetobacter sp., BK12786; settings: Acinetobacter, 24 h
# [8] = system: Serattia marcescens BK12421; test: MIC, Serattia marcescens BK12421; settings: 24 h
# M. cansassi = test: MIC, M. cansassi; format: cell-based; settings: M. cansassi; read-out: MIC
# M. avium = test: MIC, M. avium; format: cell-based; settings: Mycobacterium avium; M. avium; read-out: MIC
# [9] = system: Enterococcus sp., BK11936; test: MIC, Enterococcus sp., BK11936; settings: Enterococcus, 24 h
# [10] = system: Serattia marcescens BK12426; test: MIC, Serattia marcescens BK12426; settings: 24 h
# [11] = system: Streptococcus sp., BK12233; test: MIC, Streptococcus sp., BK12233; settings: Streptococcus, 24 h
# [12] = system: clinical isolates of bacteria and fungus (including yeasts); test: General antimicrobial activity, semi-quantitative score on collection of clinical isolates; format: cell-based; as to General antimicrobial activity: key: −: indicating no activity; +++++: indicating highest activity
# Method: The growth inhibitory effect of a number of various ITC compounds were tested on large collection of clinical isolates of bacteria and fungus (including yeasts), in order to establish a systematic structure-activity relationship for the ITC compounds. […] To assess the average activity for an individual ITC compound, the semi-quantitative score was calculated for each compound based on the number of sensitive bacterial strains at concentrations of 100 and 200 μM.
# Shigella sp., BK 12440 = test: MIC, Shigella sp., BK 12440; format: cell-based; settings: Gram −, 24 hours of incubation, read-out: MIC
# M. tuberculosis H37Rv = test: MIC, M. tuberculosis H37Rv; format: cell-based; settings: Mycobacterium tuberculosis, read-out: MIC
# Method: as §1
# [13] = system: Acinetobacter sp., BK12787; test: MIC, Acinetobacter sp., BK12787; settings: Acinetobacter, 24 h
# M. tuberculosis W4 = test: MIC, M. tuberculosis W4; format: cell-based; settings: Mycobacterium tuberculosis, read-out: MIC
# Method: as §1
# [14] = system: Enterobacter cloacii BK12315; test: MIC, Enterobacter cloacii BK12315; settings: Enterobacter, BK12315, 24 h
# M. tuberculosis P = test: MIC, M. tuberculosis P; format: cell-based; settings: Mycobacterium tuberculosis, read-out: MIC
# Method: as §1
# M. bovis BCG = test: microbe, parasite or virus in culture; format: cell-based; settings: Mycobacterium tuberculosis variant bovis BCG, BCG
# [15] = system: MRSA (Staphylococcus aureus) BK12060; test: MIC, MRSA BK12060; settings: Staphylococcus aureus, MRSA, 24 h
# M. fortuitum = test: MIC, M. fortuitum; format: cell-based; settings: Mycolicibacterium fortuitum; M. fortuitum; read-out: MIC
# [16] = system: Klebsiella pneumonii BK12260; test: MIC, Klebsiella pneumonii BK12260; settings: Klebsiella, BK12260, 24 h
# [17] = system: Streptococcus sp., BK12235; test: MIC, Streptococcus sp., BK12235; settings: Streptococcus, 24 h
# M. tuberculosis CDC1551 = test: MIC, M. tuberculosis CDC1551; format: cell-based; settings: Mycobacterium tuberculosis, read-out: MIC
# Method: as §1
# M. scrofulaceum = test: MIC, M. scrofulaceum; format: cell-based; settings: Mycobacterium scrofulaceum; M. scrofulaceum; read-out: MIC
# M. intracellularie = test: MIC, M. intracellularie; format: cell-based; settings: M. intracellularie; read-out: MIC
# [18] = system: Klebsiella pneumonii BK12261; test: MIC, Klebsiella pneumonii BK12261; settings: Klebsiella, BK12261, 24 h
# [19] = system: MRSA (Staphylococcus aureus) BK12064; test: MIC, MRSA BK12064; settings: Staphylococcus aureus, MRSA, 24 h
# Escherichia coli K12 = test: MIC, Escherichia coli K12; settings: Escherichia coli, K12, 24 h
# Escherichia coli BK12336 = test: MIC, Escherichia coli BK12336; settings: Escherichia coli, BK12336, 24 h
# Bacillus cereus 4342 = test: MIC, Bacillus cereus 4342; settings: Bacillus cereus, 4342, 24 h
structure (smiles),measurement,setting,value
S=C=NCc1ccc(CN=C=S)cc1 [Compound 37],MIC,[1],0.5 µg/mL
same,MIC,[2],4 µg/mL
same,MIC,[3],> 64 µg/mL
same,MIC,"Shigella sp., BK 12441",16 µg/mL
same,MIC,M. tuberculosis 210,2 µg/mL
same,MIC,[4],> 64 µg/mL
same,MIC,[5],16 µg/mL
same,MIC,[6],> 64 µg/mL
same,MIC,M. tuberculosis W,1 µg/mL
same,MIC,M. tuberculosis AB,2 µg/mL
same,MIC,[7],> 64 µg/mL
same,MIC,[8],64 µg/mL
same,MIC,M. cansassi,4 µg/mL
same,MIC,M. avium,32 µg/mL
same,MIC,[9],16 µg/mL
same,MIC,[10],64 µg/mL
same,MIC,[11],< 0.5 µg/mL
same,MIC,[12]; read-out: MIC values towards the microorganisms,1 to 4 µg/mL
same,General antimicrobial activity,"[12]; semi-quantitative score from number of sensitive bacterial strains at 100 and 200 μM, deduced from number of sensitive bacterial species and average MIC",+++++
same,MIC,"Shigella sp., BK 12440",16 µg/mL
same,MIC,M. tuberculosis H37Rv,2 µg/mL
same,MIC,[13],> 64 µg/mL
same,MIC,M. tuberculosis W4,2 µg/mL
same,MIC,[14],> 64 µg/mL
same,MIC,M. tuberculosis P,2 µg/mL
same,MIC,M. bovis BCG,2 µg/mL
same,MIC,[15],8 µg/mL
same,MIC,M. fortuitum,32 µg/mL
same,MIC,[16],> 64 µg/mL
same,MIC,[17],< 0.5 µg/mL
same,MIC,M. tuberculosis CDC1551,4 µg/mL
same,MIC,M. scrofulaceum,16 µg/mL
same,MIC,M. intracellularie,32 µg/mL
same,MIC,[18],> 64 µg/mL
same,MIC,[19],4 µg/mL
same,MIC,Escherichia coli K12,16 µg/mL
same,MIC,Escherichia coli BK12336,8 to 16 µg/mL
same,MIC,Bacillus cereus 4342,2 µg/mL
